Like-named read-outs stand apart in the source and are kept apart here.
Key:
[1] = system: cytoskeletal elements (microtubules and microfilaments) of Swiss 3T3 cells
[2] = system: cytoskeletal elements (microtubules) of quiescent 3T3 cells
[3] = system: skin; conditions: cited from earlier work
[4] = system: genetic material; conditions: presently used assays; cited from earlier work
[5] = Table I; recognized by U.S. Department of Health and Human Services; cited from earlier work
[6] = system: tubulin; conditions: in vitro; cited from earlier work

Structure (SMILES): O=[As][O-].[Na+] [As(III) as NaAsO2, NaAsO2]
- Cytoskeletal Perturbation [1]: positive

Structure (SMILES): O=[N+]([O-])c1ccc(Cl)c([N+](=O)[O-])c1 [CDNB, 1-Chloro-2,4-dinitro-benzene]
- Cytoskeletal Disruption ([2]; 5 × 10^-6 M, 2 hours, FIG. 2b): positive
- Cytoskeletal Perturbation ([1]; 5.0 × 10^-6 M, 2.0 hrs, FIG. 1g): positive
- allergic contact dermatitis [3]: severe allergic contact dermatitis
- identification by genotoxicity / mutagenicity assays [4]: consistently failed to be identified

Structure (SMILES): O=S(=O)([O-])[O-].[Cd+2] [Cd(II) as CdSO4, CdSO4]
- Cytoskeletal Perturbation ([1]; 2.5 × 10^-5 M, 3.0 hrs, FIG. 1c): positive

Structure (SMILES): O=S(=O)([O-])[O-].[Co+2] [Co(II) as CoSO4, CoSO4]
- Cytoskeletal Perturbation ([1]; 4.0 × 10^-4 M, 17.0 hrs, FIG. 1f): positive
- Health Hazardous Activity (carcinogen / promoter) [5]: Carcinogen

Structure (SMILES): [K+].[K+].[O]=[Cr](=[O])([O-])[O][Cr](=[O])(=[O])[O-] [Cr(VI) as K2 Cr2 O7, K2 Cr2 O7]
- Cytoskeletal Disruption ([2]; 1.2 × 10^-3 M, 3 hours, FIG. 2c): positive
- Cytoskeletal Perturbation [1]: positive

Structure (SMILES): O=[N+]([O-])c1ccc(F)c([N+](=O)[O-])c1 [FDNB, fluorodinitrobenzene]
- allergic contact dermatitis [3]: severe allergic contact dermatitis

Structure (SMILES): O=S(=O)([O-])[O-].[Ni+2] [Ni(II) as NiSO4, NiSO4]
- Cytoskeletal Disruption ([2]; 1.5 × 10^-3 M, 3 hours, FIG. 2d): positive
- Cytoskeletal Perturbation [1]: positive

Structure (SMILES): Nc1ccc(N)cc1 [PPD, P--Phenylene-diamine]
- Cytoskeletal Perturbation ([1]; 5.0 × 10^-4 M, 3.5 hrs, FIG. 1h): positive
- skin sensitization ([3]; human as well as animal studies): potent skin sensitizers
- Health Hazardous Activity (potent skin sensitizer) ([3]; identified by skin patch test): sensitizer
- identification by genotoxicity / mutagenicity assays [4]: consistently failed to be identified

Structure (SMILES): CC(=O)O[C@H]1C(=O)[C@@]2(C)[C@H]([C@H](OC(=O)c3ccccc3)[C@]3(O)C[C@H](OC(=O)[C@H](O)[C@@H](NC(=O)c4ccccc4)c4ccccc4)C(C)=C1C3(C)C)[C@]1(OC(C)=O)CO[C@@H]1C[C@@H]2O [taxol]
- tubulin polymerization [6]: promote tubulin polymerization in vitro
- effectiveness, taxol introduced prior to vs simultaneously with the epigenetic substances ([2]; prior to or simultaneous treatment): no discernible difference in effectiveness
- Cytoskeletal Disruption ([2]; taxol alone, 12 × 10^-6 M, 2 hours, FIG. 2h): negative

— patent US4701406A, “Assay for the detection of epigenetic toxic (non-genotoxic) substances” (priority 1984, dated 1987)
